# Laboratory results reported in ChEMBL document CHEMBL1131663, “Terphenyl cyclooxygenase-2 (COX-2) inhibitors: optimization of the central ring and o-biphenyl analogs” (Bioorg Med Chem Lett, 1999).
# Tests used:
# [1] = target: T1, Prostaglandin G/H synthase 1 (Ovis aries, UniProt P05979); test: In vitro inhibitory concentration against ovine COX-1
# T1 sequence (P05979 whole entry): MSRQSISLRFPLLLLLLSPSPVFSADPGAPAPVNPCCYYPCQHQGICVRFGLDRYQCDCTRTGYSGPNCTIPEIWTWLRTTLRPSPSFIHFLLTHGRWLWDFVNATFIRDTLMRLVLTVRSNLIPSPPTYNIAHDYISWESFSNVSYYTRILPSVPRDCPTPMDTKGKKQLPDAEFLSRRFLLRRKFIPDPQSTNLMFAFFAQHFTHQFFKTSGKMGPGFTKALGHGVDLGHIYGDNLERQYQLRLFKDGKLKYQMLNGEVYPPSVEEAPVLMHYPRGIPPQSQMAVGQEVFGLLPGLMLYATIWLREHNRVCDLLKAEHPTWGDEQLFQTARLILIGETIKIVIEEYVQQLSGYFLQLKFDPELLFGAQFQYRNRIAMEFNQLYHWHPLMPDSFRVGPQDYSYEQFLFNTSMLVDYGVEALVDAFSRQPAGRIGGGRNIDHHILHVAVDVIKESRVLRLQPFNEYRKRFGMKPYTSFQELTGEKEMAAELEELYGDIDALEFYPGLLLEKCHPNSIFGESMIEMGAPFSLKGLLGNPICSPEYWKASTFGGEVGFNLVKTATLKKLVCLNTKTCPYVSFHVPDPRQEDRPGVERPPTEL
# [2] = target: T2, Prostaglandin G/H synthase 2 (Homo sapiens, UniProt P35354); test: In vitro inhibitory concentration against recombinant human Prostaglandin G/H synthase 2 obtained from baculovirus
# T2 sequence (P35354 whole entry): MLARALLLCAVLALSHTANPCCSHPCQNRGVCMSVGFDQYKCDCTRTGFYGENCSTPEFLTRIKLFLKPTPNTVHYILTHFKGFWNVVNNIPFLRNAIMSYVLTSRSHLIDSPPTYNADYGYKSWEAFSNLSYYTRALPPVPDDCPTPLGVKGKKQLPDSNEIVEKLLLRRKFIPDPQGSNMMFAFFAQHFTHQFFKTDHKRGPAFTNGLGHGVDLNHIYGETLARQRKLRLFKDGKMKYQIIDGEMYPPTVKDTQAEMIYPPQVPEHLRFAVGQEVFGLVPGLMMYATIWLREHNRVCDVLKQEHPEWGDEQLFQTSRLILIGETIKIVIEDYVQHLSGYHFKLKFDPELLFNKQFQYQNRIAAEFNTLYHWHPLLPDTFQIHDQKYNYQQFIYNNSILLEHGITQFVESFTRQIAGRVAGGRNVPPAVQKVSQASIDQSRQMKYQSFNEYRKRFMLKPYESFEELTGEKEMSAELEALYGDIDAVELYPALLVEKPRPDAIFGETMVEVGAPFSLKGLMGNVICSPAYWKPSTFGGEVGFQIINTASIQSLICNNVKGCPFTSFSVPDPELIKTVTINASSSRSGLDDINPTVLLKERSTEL
SMILES,IC50 [1],IC50 [2]
CS(=O)(=O)c1ccc(-c2ccccc2-c2ccccc2)cc1,> 1000 µM,
CS(=O)(=O)c1ccc(-c2ccccc2-c2ccc3ccccc3n2)cc1,> 1000 µM,57 µM
CS(=O)(=O)c1ccc(-c2ccccc2-c2ccncc2)cc1,> 300 µM,> 300 µM
CS(=O)(=O)c1ccc(-c2cc([N+](=O)[O-])ccc2-c2ccccc2)cc1,> 300 µM,38 µM
COc1ccc2cc(-c3ccccc3-c3ccc(S(C)(=O)=O)cc3)ccc2c1,> 1000 µM,30 µM
CS(=O)(=O)c1ccc(-c2cc3ccccc3cc2-c2ccccc2)cc1,> 300 µM,41 µM
CS(=O)(=O)c1ccc(-c2ccccc2C2CCCCC2)cc1,> 1000 µM,31 µM
CN1CC=C(c2ccccc2-c2ccc(S(C)(=O)=O)cc2)CC1,> 300 µM,> 300 µM
CS(=O)(=O)c1ccc(-c2ccccc2Oc2ccccc2)cc1,> 1000 µM,33 µM
CS(=O)(=O)c1ccc(-c2nccnc2-c2ccccc2)cc1,> 300 µM,> 300 µM
COC(=O)c1ccc(-c2ccccc2)c(-c2ccc(S(C)(=O)=O)cc2)c1,> 300 µM,48 µM
CS(=O)(=O)c1ccc(-c2ccccc2C2=CCCCC2)cc1,> 1000 µM,33 µM
CS(=O)(=O)c1ccc(-c2ccccc2Cc2ccccc2)cc1,> 300 µM,> 300 µM
CS(=O)(=O)c1ccc(-c2ccccc2-c2cccnc2)cc1,> 300 µM,87 µM
CS(=O)(=O)c1ccc(-c2ccccc2-c2ccccn2)cc1,> 300 µM,> 300 µM
CS(=O)(=O)c1ccc(-c2ncccc2-c2ccccc2)cc1,> 300 µM,> 300 µM
CS(=O)(=O)c1ccc(-c2cccnc2-c2ccccc2)cc1,> 1000 µM,

# Continued, values first:
IC50 [1],IC50 [2],SMILES
> 100 µM,44 µM,CS(=O)(=O)c1ccc(-c2ccc([N+](=O)[O-])cc2-c2ccccc2)cc1
> 300 µM,> 300 µM,CS(=O)(=O)c1ccc(-c2ccccc2-c2cncnc2)cc1
43 µM,14 µM,CS(=O)(=O)c1ccc(-c2ccccc2N2CCCCC2)cc1
35 µM,194 µM,CS(=O)(=O)c1ccc(-c2cc(N)ccc2-c2ccccc2)cc1
404 µM,147 µM,CS(=O)(=O)c1ccc(-c2cc(O)ccc2-c2ccccc2)cc1
17 µM,254 µM,CS(=O)(=O)c1ccc(-c2ccc(N)cc2-c2ccccc2)cc1
232 µM,> 300 µM,CS(=O)(=O)c1ccc(-c2cc(C(=O)O)ccc2-c2ccccc2)cc1
